Laboratory results reported in patent US20240423981A1, “TREATMENT OF HCM WITH PYRIMIDINEDIONE COMPOUNDS” (MyoKardia, Inc., priority 2017, published 2024).

Tests used:
[1] = test system: healthy volunteers; test: Adverse events in healthy volunteers of the Phase 1 trials; assay type: in vivo, human
Protocol: (§1) Three clinical studies have investigated the safety and tolerability of Compound 1 to date; conduct of 2 studies has completed and 1 study is ongoing. A double-blind, placebo-controlled, single ascending-dose study (SAD) (Compound 1-002) was conducted in healthy men. Subjects received single doses ranging from 1 mg to 48 mg. Conduct of an open-label sequential-group SAD study in subjects with clinically stable HCM (Compound 1-001) is also complete; single doses of up to 144 mg were administered. In addition, a double-blind, placebo-controlled, multiple ascending-dose (MAD) study (Compound 1-003) is being conducted in which healthy adult subjects have received multiple doses of Compound 1 up to 25 mg once daily (QD) for up to 28 days.

[2] = Pharmacokinetics in Study Compound 1-002; assay type: in vivo; conditions: single oral doses, healthy men
Protocol: (§2) In Study Compound 1-002, single doses from 1 mg to 48 mg were administered as an oral suspension to healthy men. […] Single doses of ≥12 mg of Compound 1 were associated with detectable reductions in LV contractility from baseline as assessed by 3 independent echocardiographic measures (left ventricular ejection fraction [LVEF], LV fractional shortening (LVFS), and LVOT velocity time integral [VTI]). At the highest dose studied in healthy subjects (48 mg), mean reduction in LVEF at any time point was −6% relative to baseline.
(§3) Compound 1 concentrations were measured in human plasma using high pressure liquid chromatography (HPLC) coupled with tandem mass spectrometry (MS/MS). This method was used for Compound 1 bioanalysis in all clinical trials to date, and all clinical data has been collected using plasma. A brief description of the method follows.
Liquid-liquid extraction and HPLC/MS/MS was used to determine the concentration of Compound 1 in human plasma. An aliquot of the extract was injected onto an HPLC instrument that is coupled with a triple quadrupole mass spectrometer (Sciex API5500). […] The peak area of the product ion of Compound 1 was measured against the peak area of the product ion of the internal standard for determination of concentration.

[3] = Parts A and B of the phase 2 trial (PIONEER), pooled findings; assay type: in vivo, human; conditions: human, plasma, oral; read-out: concentrations associated with excessive pharmacological effect
From the text: (§4) This is a phase 2 open-label pilot study to evaluate the efficacy, PK, PD, safety, and tolerability of Compound 1 in subjects with symptomatic HCM and LVOT obstruction. Approximately 10 adult subjects with symptomatic HCM, a resting LVOT gradient ≥30 mm Hg, and post-exercise peak LVOT gradient ≥50 mm Hg will be enrolled. The study will have a 12-week treatment phase and a 4-week washout phase (FIG. 3).
(§5) This trial was similar to the trial described in Example 3, but will have several important differences. For example, subjects in the Phase 2-B trial will not be required to discontinue their β-blocker therapy, and the dose of Compound 1 will be reduced to 2 to 5 mg.
as §3
(§6) Liquid-liquid extraction and HPLC/MS/MS was used to determine the concentration of Compound 1 in human plasma. An aliquot of the extract was injected onto an HPLC instrument that is coupled with a triple quadrupole mass spectrometer (Sciex API5500). A Lux 3u Cellulose-4 HPLC column (150×2.0 mm) from […], was used to separate Compound 1, from interfering compounds that may be present in the sample extract. The internal standard was a multi-deuterated analog of Compound 1 to ensure that the internal standard used in the assay had similar chemical properties to the analyte but a different mass for selective detection. The peak area of the product ion of Compound 1 was measured against the peak area of the product ion of the internal standard for determination of concentration.

[4] = test system: obstructive HCM (oHCM) patients; test: as above; assay type: in vivo, human
From the text: as §4, §5, §3, §6

[5] = target: smooth muscle myosin (Homo sapiens, UniProt P35749); test: Biochemical activity against smooth muscle myosin
Sequence of smooth muscle myosin (P35749 whole entry): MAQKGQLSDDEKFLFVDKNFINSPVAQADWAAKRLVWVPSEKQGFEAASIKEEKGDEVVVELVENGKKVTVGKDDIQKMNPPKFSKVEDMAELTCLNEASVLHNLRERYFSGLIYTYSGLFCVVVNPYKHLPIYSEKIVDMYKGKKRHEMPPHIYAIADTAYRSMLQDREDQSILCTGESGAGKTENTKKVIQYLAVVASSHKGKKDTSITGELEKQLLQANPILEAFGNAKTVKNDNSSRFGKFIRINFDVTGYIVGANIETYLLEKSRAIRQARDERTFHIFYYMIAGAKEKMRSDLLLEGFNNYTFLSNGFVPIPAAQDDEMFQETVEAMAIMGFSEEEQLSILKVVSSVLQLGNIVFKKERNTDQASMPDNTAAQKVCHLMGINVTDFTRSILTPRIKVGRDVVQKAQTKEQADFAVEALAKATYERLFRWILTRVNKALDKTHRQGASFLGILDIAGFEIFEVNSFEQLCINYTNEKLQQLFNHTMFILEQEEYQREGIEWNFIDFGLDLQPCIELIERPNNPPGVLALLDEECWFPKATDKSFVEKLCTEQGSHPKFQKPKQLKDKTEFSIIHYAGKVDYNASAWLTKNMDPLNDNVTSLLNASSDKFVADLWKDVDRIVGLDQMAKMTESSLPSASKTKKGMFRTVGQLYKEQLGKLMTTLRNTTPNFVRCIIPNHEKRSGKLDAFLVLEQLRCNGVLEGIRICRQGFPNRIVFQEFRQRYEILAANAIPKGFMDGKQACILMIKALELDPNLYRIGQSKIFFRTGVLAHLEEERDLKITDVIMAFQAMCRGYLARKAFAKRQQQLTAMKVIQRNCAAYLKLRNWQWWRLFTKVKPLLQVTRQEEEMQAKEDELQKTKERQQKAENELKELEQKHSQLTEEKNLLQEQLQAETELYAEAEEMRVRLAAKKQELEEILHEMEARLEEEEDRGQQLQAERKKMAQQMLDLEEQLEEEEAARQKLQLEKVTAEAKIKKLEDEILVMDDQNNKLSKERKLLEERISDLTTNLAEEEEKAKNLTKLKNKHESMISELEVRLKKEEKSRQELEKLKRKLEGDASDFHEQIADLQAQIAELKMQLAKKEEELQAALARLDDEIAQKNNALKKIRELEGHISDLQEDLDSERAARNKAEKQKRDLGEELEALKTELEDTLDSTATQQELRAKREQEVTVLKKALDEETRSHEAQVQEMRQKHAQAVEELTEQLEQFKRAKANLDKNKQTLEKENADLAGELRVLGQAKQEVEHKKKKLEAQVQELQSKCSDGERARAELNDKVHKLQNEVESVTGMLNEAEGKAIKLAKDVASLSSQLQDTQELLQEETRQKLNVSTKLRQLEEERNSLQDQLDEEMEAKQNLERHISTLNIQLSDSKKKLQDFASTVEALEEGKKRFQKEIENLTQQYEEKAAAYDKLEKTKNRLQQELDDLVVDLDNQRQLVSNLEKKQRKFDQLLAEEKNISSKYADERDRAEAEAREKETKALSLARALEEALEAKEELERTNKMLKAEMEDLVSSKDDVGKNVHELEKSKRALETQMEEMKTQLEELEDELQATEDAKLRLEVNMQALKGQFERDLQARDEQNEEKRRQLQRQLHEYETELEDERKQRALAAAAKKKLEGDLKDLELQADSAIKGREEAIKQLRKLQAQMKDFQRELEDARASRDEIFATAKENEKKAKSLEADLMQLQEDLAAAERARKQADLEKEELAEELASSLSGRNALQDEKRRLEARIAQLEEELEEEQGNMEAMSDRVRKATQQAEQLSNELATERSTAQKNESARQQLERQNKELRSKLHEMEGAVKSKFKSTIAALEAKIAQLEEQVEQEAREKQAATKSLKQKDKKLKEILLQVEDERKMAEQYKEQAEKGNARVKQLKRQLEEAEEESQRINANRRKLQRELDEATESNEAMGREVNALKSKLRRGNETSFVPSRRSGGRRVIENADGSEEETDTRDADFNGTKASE
Sequence of smooth muscle myosin (P60660 whole entry partner): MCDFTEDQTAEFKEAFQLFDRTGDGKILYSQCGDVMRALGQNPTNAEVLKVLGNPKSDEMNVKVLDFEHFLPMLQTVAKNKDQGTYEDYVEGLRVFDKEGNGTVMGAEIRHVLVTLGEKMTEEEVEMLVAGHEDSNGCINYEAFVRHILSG
Sequence of smooth muscle myosin (P24844 whole entry partner): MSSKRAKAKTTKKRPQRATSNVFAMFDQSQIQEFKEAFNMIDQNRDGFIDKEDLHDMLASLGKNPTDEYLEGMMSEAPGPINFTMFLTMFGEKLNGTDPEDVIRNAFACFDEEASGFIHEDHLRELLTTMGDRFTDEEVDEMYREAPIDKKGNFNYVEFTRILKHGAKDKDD

[6] = test system: healthy adult subjects; test: Study Compound 1-003: multiple ascending-dose (MAD) trial in healthy volunteers; assay type: in vivo, human
Protocol: as §1
In Study Compound 1-003, 4 cohorts of healthy adult subjects have been dosed, each scheduled to dose for 28 days. […] In cohort 3, 3 of 12 subjects who received blinded treatment (either Compound 1 12.5 mg or placebo QD) had diarrhea and/or abdominal cramps. One of these subjects was discontinued due to recurrence of diarrhea upon rechallenge, and the other 2 subjects were successfully restarted on study medication. The investigator considered these gastrointestinal AEs either mild or moderate in severity and likely related to study medication.
Dosing in cohort 4 was stopped on Day 25 by the investigator, because 5 of 12 subjects who received blinded treatment (either Compound 1 25 mg or placebo QD) achieved the predefined stopping criterion for dose ascension of ≥20% reduction in LVEF. All subjects remained asymptomatic.

[7] = test system: healthy volunteers and HCM patients; test: Phase 1 program summary (three Phase 1 studies); assay type: in vivo, human
Protocol: as §1

[8] = test system: healthy men; test: Study Compound 1-002: single ascending-dose (SAD) trial in healthy volunteers; assay type: in vivo, human
Protocol: as §1, §2

[9] = Pre-clinical acute or chronic administration, haemodynamics; assay type: in vivo
[10] = 12.5 mg cohort, 28-day treatment
[11] = 25 mg cohort treated for 25 days

CC(C)n1c(=O)cc(N[C@@H](C)c2ccccc2)[nH]c1=O [Compound 1, (S)-3-Isopropyl-6-((1-phenylethyl)amino) pyrimidine-2, 4(1H,3H)-dione]
SAEs [1]: No SAEs reported
severity of adverse events [1]: all mild to moderate
number of AEs reported ([1]; in 33 subjects): 54
half-life ([2]; male, human, plasma, read-out: mean elimination half-life (converted)): ~192 h
pharmacokinetic (PK) profile [2]: rapid absorption and subsequent distribution followed by a long elimination phase
concentration at 12 weeks [3]: > 1000 ng/mL
effects accompanying the gradient reduction ([4]; Parts A and B): improvement in symptoms, pVO2 during exercise, a decrease in NT pro-BNP and improvement in echocardiographic measures of diastolic function
diastolic function ([4]; Parts A and B, Tables 9 and 10): diastolic improvement
tolerability of the therapeutic concentration range ([4]; associated with limited decrease in LVEF): well tolerate
compliance of the left ventricle ([4]; increase in LVEDV with reduction in LV filling pressure (E/e′), emerging data, Cohorts A and B): improving compliance of the left ventricle
LVEF maintained with clinical improvement in oHCM (symptom improvement and peak VO2) ([4]; plasma concentrations of 350 to 700 ng/mL): ≥ 55%
LVOT gradient level reached ([4]; plasma concentrations of 350 to 700 ng/mL, generally): < 30 mm Hg
activity against smooth muscle myosin [5]: biochemically inactive
PD evidence of reduced contractility ([6]; 12.5 mg QD and 25 mg QD groups): PD evidence of reduced contractility was apparent
Responders % [6, 10]: 30%
Responders n [6, 10]: 3/10
Responders n ([6]; 18.5 mg cohort, 28-day treatment): 10/10
Responders % [6, 11]: 100%
Responders n [6, 11]: 10/10
Responders % ([6]; 25 mg cohort, 28-day treatment): 100%
subjects with diarrhea and/or abdominal cramps ([6]; cohort 3, blinded treatment (Compound 1 12.5 mg or placebo QD)): 3 of 12
gastrointestinal AEs ([6]; cohort 4 (Compound 1 25 mg or placebo)): No gastrointestinal AEs were reported
subjects achieving stopping criterion of ≥20% reduction in LVEF ([6]; cohort 4, blinded treatment (Compound 1 25 mg or placebo QD), dosing stopped on Day 25): 5 of 12
AE severity and SAEs ([6]; multiple doses up to 25 mg QD): All AEs were mild or moderate in severity, and there were no SAEs
tolerability ([6]; multiple doses up to 25 mg QD, healthy adults): well tolerated
proof of mechanism: cardiac contractility [7]: dependent reduction in cardiac contractility
Responders % ([8]; 12 mg single dose cohort): 50%
Responders n ([8]; 12 mg single dose cohort): 3/6
Responders % ([8]; 24 mg single dose cohort): 83%
Responders n ([8]; 24 mg single dose cohort): 5/6
Responders % ([8]; 48 mg single dose cohort): 100%
Responders n ([8]; 48 mg single dose cohort): 6/6
mean reduction in LVEF at any time point relative to baseline ([8]; 48 mg single dose, healthy subjects): −6%
single dose associated with detectable reductions in LV contractility from baseline ([8]; 3 echocardiographic measures (LVEF, LVFS, LVOT VTI), healthy men): ≥ 12 mg
changes in systolic blood pressure or heart rate ([8]; any dose level 1 mg to 48 mg): No changes in systolic blood pressure (BP) or heart rate (HR) were detected
incidence of treatment-emergent AEs versus dose ([8]; single doses 1 mg to 48 mg): did not appear to increase with dose
tolerability ([8]; single doses 1 mg to 48 mg, oral suspension, healthy men): well tolerated, with no serious adverse events (SAEs), deaths, or withdrawals from study due to adverse events (AEs) reported
myocardial contractility, LV end-diastolic dimensions, blood pressure ([9]; acute or chronic administration): decreased myocardial contractility and increased LV end-diastolic dimensions while preserving systemic arterial blood pressure and, LV end-diastolic pressure
end-diastolic pressures and end-diastolic stiffness ([9]; versus acute effects of other negative inotropes): preserves end-diastolic pressures as well as the estimated (linear) end-diastolic stiffness despite marked increases in preload (EDV)
